Test results published in ChEMBL document CHEMBL5634133, “Indirubin derivatives as bifunctional molecules inducing DNA damage and targeting PARP for the treatment of cancer” (Eur J Med Chem, 2023).
pIC50: −log10 of the molar value. Active and inactive are the calls of the source. No cut-off for these calls is given here.

What was measured:
NCM460 [1] = experiment: Antiproliferative activity against human NCM460 cells assessed as inhibition of cell viability incubated for 72 hrs by CCK8 assay; assay type: functional, cell-based; settings: NCM460, 72 h
A549 [2] = experiment: Antiproliferative activity against human A549 cells assessed as inhibition of cell viability incubated for 72 hrs by CCK8 assay; assay type: functional, cell-based; settings: A549, 72 h
MCF7 [3] = experiment: Antiproliferative activity against human MCF7 cells assessed as inhibition of cell viability incubated for 72 hrs by CCK8 assay; assay type: functional, cell-based; settings: MCF7, 72 h
MV4-11 [4] = experiment: Antiproliferative activity against human MV4-11 cells assessed as inhibition of cell viability incubated for 72 hrs by CCK8 assay; assay type: functional, cell-based; settings: MV4-11, 72 h
HCT-116 [5] = experiment: Antiproliferative activity against human HCT-116 cells assessed as inhibition of cell viability incubated for 72 hrs by CCK8 assay; assay type: functional, cell-based; settings: HCT-116, 72 h
HCT-116 [6] = experiment: Antiproliferative activity against human HCT-116 cells assessed as inhibition of cell viability incubated for 72 hrs in presence of olaparib by CCK8 assay; assay type: functional, cell-based; settings: HCT-116, 72 h
MV4-11 [7] = experiment: Antiproliferative activity against human MV4-11 cells assessed as inhibition of cell viability incubated for 72 hrs in presence of olaparib by CCK8 assay; assay type: functional, cell-based; settings: MV4-11, 72 h
MCF7 [8] = experiment: Antiproliferative activity against human MCF7 cells assessed as inhibition of cell viability incubated for 72 hrs in presence of olaparib by CCK8 assay; assay type: functional, cell-based; settings: MCF7, 72 h
A549 [9] = experiment: Antiproliferative activity against human A549 cells assessed as inhibition of cell viability incubated for 72 hrs in presence of olaparib by CCK8 assay; assay type: functional, cell-based; settings: A549, 72 h
NCM460 [10] = experiment: Antiproliferative activity against human NCM460 cells assessed as inhibition of cell viability incubated for 72 hrs in presence of olaparib by CCK8 assay; assay type: functional, cell-based; settings: NCM460, 72 h
HCT-116 [11] = experiment: Antiproliferative activity against human HCT-116 cells assessed as inhibition of cell viability incubated for 72 hrs in presence of Niraparib by CCK8 assay; assay type: functional, cell-based; settings: HCT-116, 72 h
MV4-11 [12] = experiment: Antiproliferative activity against human MV4-11 cells assessed as inhibition of cell viability incubated for 72 hrs in presence of Niraparib by CCK8 assay; assay type: functional, cell-based; settings: MV4-11, 72 h
MCF7 [13] = experiment: Antiproliferative activity against human MCF7 cells assessed as inhibition of cell viability incubated for 72 hrs in presence of Niraparib by CCK8 assay; assay type: functional, cell-based; settings: MCF7, 72 h
A549 [14] = experiment: Antiproliferative activity against human A549 cells assessed as inhibition of cell viability incubated for 72 hrs in presence of Niraparib by CCK8 assay; assay type: functional, cell-based; settings: A549, 72 h
NCM460 [15] = experiment: Antiproliferative activity against human NCM460 cells assessed as inhibition of cell viability incubated for 72 hrs in presence of Niraparib by CCK8 assay; assay type: functional, cell-based; settings: NCM460, 72 h
HCT-116 [16] = experiment: Antiproliferative activity against human HCT-116 cells assessed as combination index incubated for 72 hrs in presence of olaparib by CCK8 assay; assay type: functional
MV4-11 [17] = experiment: Antiproliferative activity against human MV4-11 cells assessed as combination index incubated for 72 hrs in presence of olaparib by CCK8 assay; assay type: functional
MCF7 [18] = experiment: Antiproliferative activity against human MCF7 cells assessed as combination index incubated for 72 hrs in presence of olaparib by CCK8 assay; assay type: functional
A549 [19] = experiment: Antiproliferative activity against human A549 cells assessed as combination index incubated for 72 hrs in presence of olaparib by CCK8 assay; assay type: functional
NCM460 [20] = experiment: Antiproliferative activity against human NCM460 cells assessed as combination index incubated for 72 hrs in presence of olaparib by CCK8 assay; assay type: functional
HCT-116 [21] = experiment: Antiproliferative activity against human HCT-116 cells assessed as combination index incubated for 72 hrs in presence of Niraparib by CCK8 assay; assay type: functional
MV4-11 [22] = experiment: Antiproliferative activity against human MV4-11 cells assessed as combination index incubated for 72 hrs in presence of Niraparib by CCK8 assay; assay type: functional
MCF7 [23] = experiment: Antiproliferative activity against human MCF7 cells assessed as combination index incubated for 72 hrs in presence of Niraparib by CCK8 assay; assay type: functional
A549 [24] = experiment: Antiproliferative activity against human A549 cells assessed as combination index incubated for 72 hrs in presence of Niraparib by CCK8 assay; assay type: functional
NCM460 [25] = experiment: Antiproliferative activity against human NCM460 cells assessed as combination index incubated for 72 hrs in presence of Niraparib by CCK8 assay; assay type: functional
HCT-116 [26] = experiment: Antitumor activity against human HCT-116 cells xenografted in BALB/c nude mouse assessed as tumor growth inhibition at 20 mg/kg, ip administered for 14 days relative to control; assay type: functional; settings: Mus musculus, HCT-116, 336 h, time 14 day, read-out: TGI
HCT-116 [27] = experiment: Antitumor activity against human HCT-116 cells xenografted in BALB/c nude mouse assessed as tumor growth inhibition at 20 mg/kg, ip administered for 14 days in presence of Olaparib relative to control; assay type: functional; settings: HCT-116, 336 h, time 14 day, read-out: TGI
HCT-116 [28] = experiment: Induction of DNA damage in human HCT-116 cells assessed as increase in gammaH2AX protein level at 1 uM incubated for 48 hrs in presence of Olaparib by Western blotting analysis; assay type: functional, cell-based

## O=C1Nc2ccccc2/C1=C1/Nc2ccccc2/C1=N\O
NCM460 [1]
  pIC50: 4.88
A549 [2]
  pIC50: 5.09
MCF7 [3]
  pIC50: 5.39
MV4-11 [4]
  pIC50: 5.22
HCT-116 [5]
  pIC50: 5.41
HCT-116 [6]
  pIC50: 5.86
MV4-11 [7]
  pIC50: 5.63
MCF7 [8]
  pIC50: 5.63
A549 [9]
  pIC50: 5.22
NCM460 [10]
  pIC50: 4.70
HCT-116 [11]
  pIC50: 6.08
MV4-11 [12]
  pIC50: 5.77
MCF7 [13]
  pIC50: 5.85
A549 [14]
  pIC50: 5.38
NCM460 [15]
  pIC50: 4.68
HCT-116 [16]
  CI: 0.47
MV4-11 [17]
  CI: 0.57
MCF7 [18]
  CI: 0.59
A549 [19]
  CI: 0.94
NCM460 [20]
  CI: 0.92
HCT-116 [21]
  CI: 0.67
MV4-11 [22]
  CI: 0.72
MCF7 [23]
  CI: 0.47
A549 [24]
  CI: 0.84
NCM460 [25]
  CI: 1
HCT-116 [26]
  inhibition in vivo at 20 mg/kg: 47.4%
HCT-116 [27]
  inhibition in vivo at 20 mg/kg: 64.6%
HCT-116 [28]
  Activity: Active
